Results published in patent publication US9618507B2, “Methods of treating rheumatoid arthritis” (Betanien Hospital, priority 2014, dated 2017).
Marks after values point to notes of the source that are not given here. Where a SMILES comes first, the peptide text is derived from it. [ ]: non-standard residue; d: D form. dPhe(4-Cl) = N[C@H](Cc1ccc(Cl)cc1)C(=O)O; d2Nal = N[C@H](Cc1ccc2ccccc2c1)C(=O)O; dCit = NC(=O)NCCC[C@@H](N)C(=O)O; d3Pal = N[C@H](Cc1cccnc1)C(=O)O

How the values were obtained:
RA patients = assay: Example 1: randomized, double-blind, placebo-controlled study, disease activity (DAS28-CRP, ACR responses, core set measures); format: in vivo, human
Method: In this randomized, double-blind, placebo-controlled, single-centre study, males and females aged ≧18 years with RA according to the 1987 revised American College of Rheumatology (ACR) criteria, and with a 28-joint Disease Activity Score based on C-reactive protein (DAS28-CRP)>3.2 were enrolled.
Ethical committee approval was obtained. […] Safety and efficacy visits, with blood sampling, were between 0730 and 0930 h on days 1 (baseline), 2, 3, 4, 5 (visit 5a), 10, and 15. There was an additional visit (visit 5b) between 1930 and 2130 h when maximum GnRH suppression was anticipated.
Predefined secondary end-points included the baseline adjusted between-group difference inTNF-α, ACR20/50/70 responses, European League Against Rheumatism (EULAR) responses, DAS28-CRP <2.6 and ≦3.2, and adverse events.
Menstruating women could only enter the study in the early follicular phase of their menstrual cycle. The concomitant use of stable doses of disease-modifying anti-rheumatic drugs (DMARDs) for at least 8 weeks, stable prednisolone ≦7.5 mg daily for at least 4 weeks, and stable non-steroidal anti-inflammatory drugs (NSAIDs) for at least 2 weeks was allowed if these doses were continued throughout the study. Key exclusion criteria were as follows: pregnancy or breastfeeding females; corticosteroid injections within the trial or 4 weeks prior to screening; biological agents were not permitted during the trial or within 4 weeks prior to inclusion in the trial (with the exception of infliximab or adalimumab which were not permitted within 3 months prior to inclusion in the trial; and rituximab which was not permitted within 6 months prior to inclusion in the trial). A history of hormone-dependent cancers ever or non-hormone-dependent cancers within 5 years prior to screening: infections requiring intravenous antibiotic treatment within 30 days, or oral antibiotics within 14 days prior to enrolment; significant renal or hepatic impairment; and any treatment with hormone replacement therapy or oral contraception were also exclusion criteria.
The Newcombe hybrid score interval was used to estimate 95% confidence intervals (CI) for the difference between proportions (Fagerland M W, et al., Stat Methods Med Res 2011). No adjustments for multiple analyses were made, owing to the highly correlated variables. All clinical, biochemical, and safety data were analyzed by an intention-to-treat analysis. Only predefined endpoints are presented. The intention-to-treat population was predefined in the protocol as all randomized patients who received any injections of study drug. Missing values were <1% and could, as predefined, be imputed with the last observation carried forward. The assumptions of normality needed for analyses were approximately valid. The Spearman rank correlation coefficient (Spearman's rho) was used to estimate the association between pairs of continuous variables.

TNF-α = assay: Example 2: serum cytokine, multiplex high-sensitivity assay, TNF-α; format: in vivo, human; settings: high gonadotropin patients
Method: (§1) The protocol-specified primary and secondary intention-to-treat endpoints of the original AGRA trial were analyzed in these post hoc analyses. The primary endpoint was the baseline-adjusted between-group difference in DAS28-CRP (Wells et al., supra) by day 5b. Secondary endpoints included the baseline-adjusted between-group difference in cytokines, proportions of patients achieving at least a 20%, 50%, and 70% improvement on the ACR scale (Felson D T, et al., Arthritis Rheum 1995; 38:727-35), categorical DAS28-CRP (European League Against […] [EULAR]) responses (Wells et al., supra; van Gestel A M, et al., Arthritis Rheum 1996; 39:34-40), DAS28-CRP≦3.2 (Wells et al., supra), DAS28-CRP<2.6 (Wells et al., supra), and the incidence of adverse events. Protocol-specified DAS28 outcomes were preferentially CRP-based rather than erythrocyte sedimentation rate (ESR)-based, as CRP usually changes before ESR. […] Multiplex technology (Luminex Inc., Austin, Tex.) measured these serum cytokines using high-sensitivity assays (sensitivities <0.5 pg/mL, allowing the detection of very low concentrations of cytokines) and identical lots of critical reagent of negligible cross-reactivity <2%, according to manufacturers' instructions (Bio-Rad, Hercules, Calif.). […] To enable intention-to-treat analyses with all patients N=53, non-detectable values were set at the lower limit of detection for cytokines, as is common for CRP values.
The original power calculation is previously reported (Kass A S, et al., Scand J Rheumatol Epub ahead of print 1 Nov. 2013). Baseline-adjusted between-group differences for all continuous endpoints were assessed with the use of analysis-of-covariance using outcome measurements at predefined time points as response variables, and treatment and baseline measurements as covariates. Dichotomous endpoints were compared with the Pearson chi-square test or Suissa-Shuster exact unconditional test, depending on expected-value distribution (Lydersen S, et al., Stat Med 2009; 28:1159-75). […]

interleukin-2 = assay: Example 2: serum cytokine, multiplex high-sensitivity assay, interleukin-2; format: in vivo, human; settings: high gonadotropin patients
Method: as §1
The original power calculation is previously reported (Kass A S, et al., Scand J Rheumatol Epub ahead of print 1 Nov. 2013). Baseline-adjusted between-group differences for all continuous endpoints were assessed with the use of analysis-of-covariance using outcome measurements at predefined time points as response variables, and treatment and baseline measurements as covariates. Dichotomous endpoints were compared with the Pearson chi-square test or Suissa-Shuster exact unconditional test, depending on expected-value distribution (Lydersen S, et al., Stat Med 2009; 28:1159-75). No adjustments for multiple analyses were made, owing to highly correlated endpoints. Due to skewed distributions, between-group changes of natural log-transformed cytokine levels from baseline were compared.

myeloma cells = settings: Wen J, et al., Mol Cancer Ther 2011; cited from earlier work

CC(=O)N[C@H](Cc1ccc2ccccc2c1)C(=O)N[C@H](Cc1ccc(Cl)cc1)C(=O)N[C@H](Cc1cccnc1)C(=O)N[C@@H](CO)C(=O)N[C@@H](Cc1ccc(O)cc1)C(=O)N[C@H](CCCNC(N)=O)C(=O)N[C@@H](CC(C)C)C(=O)N[C@@H](CCCNC(=N)N)C(=O)N1CCC[C@H]1C(=O)N[C@H](C)C(N)=O [cetrorelix] (Ac-[d2Nal][dPhe(4-Cl)][d3Pal]SY[dCit]LRP[dA]-NH2)
DAS28-CRP between-group difference vs placebo (RA patients; all patients, baseline adjusted, day 5, 95% CI −0.04 to 0.57, p 0.091): 0.26 | patients achieving DAS28-CRP<2.6 (RA patients; all patients, by day 5, placebo 0%): 13% | patients achieving ACR20 responses (RA patients; all patients, by day 5, placebo 18%): 40% | DAS28-CRP reduction by day 5 (RA patients; all patients, cetrorelix n=48, 5 mg/day s.c. days 1-2, 3 mg/day days 3-5, day 5): 0.82 | ACR50/70 responses compared with placebo (RA patients; all patients, day 5, FIG. 1A): More patients reached ACR50/70 responses | core set measures of disease activity compared with placebo (RA patients; all patients, except physician global assessment): non-significant greater improvements | DAS28-CRP reduction, prednisolone users (n 24) vs non-users (n 24) (RA patients; cetrorelix group, p 0.40): did not differ | TNF-α level, Final Day 15 (TNF-α; N = 27, mean ± SD): 0.01 ± 2.1 log pg/mL | TNF-α Change from baseline by day 15 (TNF-α; N = 27, placebo +0.02): −0.45 log pg/mL | TNF-α Baseline-Adjusted Between-Group Difference (TNF-α; day 15, 95% CI (0.01, 0.96), P < 0.05): 0.49‡ log pg/mL | IL-2 level, Final Day 15 (interleukin-2; N = 27, mean ± SD): −3.39 ± 2.9 log pg/mL | IL-2 Change from baseline by day 15 (interleukin-2; N = 27, placebo +0.02): −0.42 log pg/mL | interleukin-2 change compared with placebo (interleukin-2; by day 15, P=0.088): decreased non-significantly | IL-2 Baseline-Adjusted Between-Group Difference (interleukin-2; day 15, 95% CI (−1.09, 0.08)): -0.51 log pg/mL | pro-inflammatory cytokine gene expression through GnRH receptors (myeloma cells): directly decrease
